From ChEMBL document CHEMBL1125846, “Reevaluating equilibrium and kinetic binding parameters for lipophilic drugs based on a structural model for drug interaction with biological membranes” (J Med Chem, 1991) come the findings set out here.

Broadly, the Kd is a measure of binding affinity in units of concentration. A lower Kd goes with higher affinity.

The species named for data set [1] is Rattus norvegicus. Kind of data set: Equilibrium dissociation constant based on membrane concentration in rat smooth muscle. The format is ADME, Muscle tissue.
The species entered for data set [2] is Rattus norvegicus. Kind of data set: Equilibrium dissociation constant based on aqueous concentration in rat smooth muscle. The format is ADME, Muscle tissue.
Data set [3] in a line: Partition coefficient of compound in to octanol/buffer. The format is physicochemical. The note with it: octanol/water.
For data set [4] the following is noted: sarcoplasmic reticulum membrane.
Description: Partition coefficient of compound in to biological membranes
For data set [5], the species on record is Rattus norvegicus. Kind of data set: Equilibrium dissociation constant based on membrane concentration in rat cardiac muscle.

Turning to `COCCOC(=O)C1=C(C)NC(C)=C(C(=O)OC(C)C)C1c1cccc([N+](=O)[O-])c1` (stereo not drawn) [NIMODIPINE], the results for the Kd in the data set listed under Rattus norvegicus [1] and in the data set listed under Rattus norvegicus [2] were 690 nM and 0.11 nM, respectively. Also, the values for the Partition coefficient in data set [3] and in data set [4] were 730 and 6300, respectively.
As to `COC(=O)C1=C(C)NC(C)=C(C(=O)OC)C1c1ccccc1[N+](=O)[O-]` [NIFEDIPINE], the Kd in the data set listed under Rattus norvegicus [1] is 23000 nM; in the data set filed under Rattus norvegicus [2], 0.41 nM.
`CC(C)(C)NC[C@H](O)COc1nsnc1N1CCOCC1` [TIMOLOL]: in data set [3], the Partition coefficient is on record as 0.7.
Consider `CC(C)NCC(O)COc1cccc2ccccc12` (stereo not drawn) [PROPRANOLOL], for which the Partition coefficient was 18 in data set [3] and 1200 in data set [4].
`CN/C(=N/CCSCc1nc[nH]c1C)NC#N` [CIMETIDINE]: the Partition coefficient in data set [3] is given as 1.
Consider `CCOC(=O)C1=C(COCCN)NC(C)=C(C(=O)OC)C1c1ccccc1Cl` (stereo not drawn) [AMLODIPINE], for which the figures for the dissociation constant (Kd) in the data set listed under Rattus norvegicus [1] and in the data set listed under Rattus norvegicus [2] were 23000 nM and 1.2 nM, respectively. Further, the results for the Partition coefficient in data set [3] and in data set [4] were 30 and 19000, respectively.
Turning to `COC(=O)C1=C(C)NC(C)=C(C(=O)OCC(C)C)C1c1ccccc1[N+](=O)[O-]` (stereo not drawn) [NISOLDIPINE], the Kd was found to be 0.14 nM in the data set listed under Rattus norvegicus [2] and 1800 nM in the data set filed under Rattus norvegicus [5]. The Partition coefficient in data set [3] came to 40; in data set [4] it was 13000.
